Measured values as given in patent publication US20170073659A1, “NOVEL LYSYL TRNA SYNTHETASE FRAGMENT AND MICROVESICLES COMPRISING SAME” (Medicinal Bioconvergence Research Center, priority 2014, published 2017).
Residues, ends and D or L forms follow the SMILES beside them. *: point of attachment. Cbz = O=C(OCc1ccccc1)*; CH2F = FC*

Assays:
HCT116 cells [1] = experiment: KRS secretion test (TCA precipitation, western blot); assay type: cell-based; conditions: for KRS secretion after caspase inhibitor treatment: HCT116 cells, serum starvation media, inhibitor 14 uM, 12 hr, anti-KRS antibody; for secretion of KRS variant compared with WT: myc-tagged variant transfected into HCT116 cells, serum starvation 12 hr, anti-myc antibody
Method: HCT116 cells were incubated in RPMI media containing 10% FBS (Hyclone), and were grown to 60% confluency on 60-mm dish. The cells were washed twice with PBS, incubated in serum-free RPMI media, and treated with 10 ng/ml TNF-α for 12 hr. The supernatant of the cell culture liquid was cautiously collected, followed by centrifugation at 500 g for 10 min. The supernatant thus obtained was again centrifuged at 10,000 g for 30 min, thereby removing membrane organelles. Then, 12% TCA was added to the supernatant, followed by culture at 4° C. for 12 hr, so the supernatant was subjected to precipitation treatment. After the precipitation treatment, the supernatant was centrifuged at 18,000 g for 15 min, and the upper part was then discarded and the remaining pellets were neutralized with 100 mM HEPES (pH 8.0), and then 5× sample buffer was added to perform separation using SDS-PAGE. The products separated by SDS-PAGE were western blotted using anti-KRS antibody.

HCT116 cells [2] = experiment: KRS cleavage in cells (GFP-KRS, western blot with anti-GFP antibody); assay type: cell-based
Method: The cells were lysed with 50 mM Tris-HCl (pH 7.4) buffer containing 150 mM NaCl, 10 mM NaF, 12 mM beta-glycerophosphate, 1 mM EDTA, 1% NP-40, 10% glycerol, and protease inhibiting agent. Then, the supernatant was dissolved in SDS sample buffer, followed by separation using SDS-PAGE. For immunoblotting of endogenous KRS, anti-KRS antibody was used. Antibodies against Hsp90, syntenin-1, GFP, myc, caspase-3, -6, -8, -9, while syntenin-1 were purchased from Santa Cruz, and antibodies against alix were purchased from Cell Signaling. The anti-KRS antibody was manufactured by ordinary procedures in which KRS protein (Genbank Accession No. NP_005539.1) represented by SEQ ID NO: 2 was injected into New Zealand white rabbits to induce immune response and their antibodies were obtained.

HCT116 cells [3] = experiment: KRS exosome secretion (exosomes isolated at 100,000 g, western blot); assay type: cell-based; conditions: for exosome secretion of KRS variant compared with WT: myc-tagged variant transfected into HCT116 cells, serum starvation 12 hr
Method: HCT116 cells were incubated for a predetermined period of time in each treatment condition (especially, serum-starvation condition), and then the media were separated and consecutively centrifuged. Centrifugation was conducted three times at 500 g (10 min), 10,000 g (30 min), and 100,000 g (90 min) to form microvesicle pellets. The amount of microvesicle proteins was determined by using Bradford assay.

KRS and syntenin-1 [4] = experiment: KRS-syntenin-1 interaction by immunoprecipitation and western blot; assay type: cell-based; conditions: for binding of KRS variant with syntenin-1 compared with WT: myc-tagged variant transfected into cells, immunoprecipitation and western blot
Method: For immunoprecipitation, the cells were lysed at 4° C. in 50 mM HEPES (pH 7.4) buffer containing 150 mM NaCl, 0.5% NP-40, 2 mM EDTA, 5% glycerol and protease inhibiting agent (Calbiochem, San Diego, Calif., USA). Protein extracts were cultured together with protein-specific antibodies thereagainst with stirring at 4° C. In addition, protein G agarose was added. 4 hr after the addition of the protein G agarose, precipitate samples were obtained by centrifugation. The precipitate samples were washed three times for 5 min using cool lysis buffer. The precipitates were separated by SDS-PAGE.

KRS and syntenin-1 [5] = experiment: Bimolecular fluorescence complementation (BiFC) assay; assay type: cell-based; conditions: KRS-VN173 and syntenin-1-VC155 transfected cells, serum starvation 4 hr
Method: KRS-VN173 plasmid and syntenin-1-VC155 plasmid were all transduced in HCT116 cells, and the cells were incubated in starvation condition or serum-free condition for 4 hr. The HCT116 cells were located on 9-mm coverslip, fixed using 4% paraformaldehyde, and washed shortly with cool PBS. The cells were incubated in 5% BSA blocking buffer for 1 hr, and DAPI stained for 10 min. The cells were washed six times with cool PBS five times for 5 min for each time, and then mounted on slide glass. Thereafter, the samples were observed using confocal laser scanning microscope A1 (Nikon).

Cytokine activity of KRS = conditions: WT compared with N-terminus truncated KRS
RAW264.7 cells [6] = experiment: Wound healing assay; assay type: cell-based; conditions: RAW 264.7 monolayer; 100 nM KRS proteins or KRS exosomes 0.05, 0.5, 5 ug; 12 hr
Method: RAW264.7 cells were dispensed on the coverslip, and grown to >95% confluency. Subsequently, the RAW 264.7 monolayer was scratched to create wounds, and then the wounds were treated with 100 nM KRS proteins (WT, ▴N12) or KRS exosomes (0.05, 0.5, 5 ug) in their respective concentrations, followed by incubation for 12 hr. The cell morphology of cells was observed using microscopy.

RAW264.7 cells [7] = experiment: TNF-alpha secretion ELISA assay; assay type: cell-based; conditions: RAW 264.7 cells; 100 nM KRS proteins or KRS exosomes 0.05, 0.5, 5 ug
Method: RAW264.7 cells (2×10^4) were incubated in 24-well plate containing DMEM supplemented with 10% FBS and 1% antibiotic for 12 hr, and starved in serum starvation media for 2 hr. 100 nM KRS protein (WT, ▴N12 each) and KRS exosomes (0.05, 0.5, 5 ug) were added, followed by treatment for 6 hr. Thereafter, cell media were collected by centrifugation at 3,000 g for 5 min. TNF-alpha secreted from the cells was detected using the TNF-alpha ELISA kit (Pharmingen, BD Science) according to the manufacturer's protocol.

RAW264.7 cells [8] = experiment: Luminex screening assays (bead-based multiplex kits); assay type: cell-based; conditions: 100 nM KRS proteins or KRS exosomes 5 ug/ml; 12 hr
Method: RAW264.7 cells were incubated in 12-well plate using DMEM media containing 10% FBS and 1% antibiotic for 12 hr, and starved in serum starvation media for 2 hr. KRS proteins (WT, ▴N12 each) and KRS exosomes (5 ug) in different amounts were respectively added to the media. After 12 hr, conditioned media were collected, and spun down through centrifugation at 3,000 g for 10 min. For multiplex assay, premixed beads for TNF-alpha, mCRG-2, IL-6, mIL-lbeta, mIL-12, mIL-10, MMP9, INF-gamma, mMIP3a, and CXCL10 were purchased from R&D Science, and used according to the manufacturer's protocol. Each sample were analyzed by BioRad Bioplex 200 system and software.

## COC(=O)C[C@H](NC(=O)[C@H](C)NC(=O)[C@@H](NC(=O)OCc1ccccc1)C(C)C)C(=O)CF [pan-caspase inhibitor, Z-VAD-FMK] (Cbz-Val-Ala-Asp(OMe)-CH2F)
HCT116 cells [1]
  KRS secretion after caspase inhibitor treatment: reduced
HCT116 cells [2]; GFP-KRS overexpressed cells, serum starvation media, Z-VAD-FMK 14 uM, 1 hr
  KRS cleavage after caspase inhibitor treatment: reduced

## D12A mutant: variant in which Asp, 12th amino acid of KRS WT, is replaced with Ala; not cleaved by caspase-8
HCT116 cells [3]
  exosome secretion of KRS variant compared with WT: significantly reduced
KRS and syntenin-1 [4]
  binding of KRS variant with syntenin-1 compared with WT: less
HCT116 cells [1]
  secretion of KRS variant compared with WT: reduced
KRS and syntenin-1 [5]
  BiFC fluorescence (KRS-syntenin binding): not observed
HCT116 cells [2]; GFP-KRS variant overexpressed in HCT116 cells, serum starvation 1 hr
  cleavage of KRS variant compared with WT: reduced

## KRS WT: full-length human lysyl tRNA synthetase (1-597), SEQ ID NO: 2
Cytokine activity of KRS
  cytokine activity: identical
RAW264.7 cells [6]
  migration of macrophages (wound-healing assay): increased
RAW264.7 cells [7]
  TNF-alpha secretion from macrophages: increasing TNF-alpha secretion
RAW264.7 cells [8]
  secretion of IL-6 from macrophages: induced
  secretion of MMP9 from macrophages: induced
  secretion of TNF-alpha from macrophages (luminex): induced
  secretion of mCRG-2 from macrophages: induced

## Z-VAD-DQMD [caspase-3 inhibitor]
HCT116 cells [1]
  KRS secretion after caspase inhibitor treatment: only caspase-8 inhibitor inhibited KRS secretion

## Z-VAD-IETD [caspase-8 inhibitor]
KRS and syntenin-1 [4]; serum starvation medium with or without caspase-8 inhibiting agent, IP of syntenin-1, anti-KRS western blot
  binding between KRS and syntenin increased by starvation: reduced
HCT116 cells [1]
  KRS secretion after caspase inhibitor treatment: inhibited KRS secretion
KRS and syntenin-1 [5]
  BiFC fluorescence (KRS-syntenin binding): not observed

## Z-VAD-VEID [caspase-6 inhibitor]
HCT116 cells [1]
  KRS secretion after caspase inhibitor treatment: only caspase-8 inhibitor inhibited KRS secretion

## si-KRS: si-RNA against KRS from Invitrogen: GGGAAGACCCAUACCCACACAAGUU, AACUUGUGUGGGUAUGGGUCUUCCC (chemistry not given here)
HCT116 cells [3]; exosomes purified from si-RNA treated cells, 48 hr then serum starvation 12 hr, vs si-con
  KRS proteins existing in the exosome: reduced

## ▴N12: KRS fragment 13-597 a.a., the peptide of SEQ ID NO: 1, first 12 N-terminal amino acids deleted
Cytokine activity of KRS
  cytokine activity: identical
RAW264.7 cells [6]
  migration of macrophages (wound-healing assay): increased
RAW264.7 cells [7]
  TNF-alpha secretion from macrophages: increasing TNF-alpha secretion
RAW264.7 cells [8]
  secretion of IL-6 from macrophages: induced
  secretion of MMP9 from macrophages: induced
  secretion of TNF-alpha from macrophages (luminex): induced
  secretion of mCRG-2 from macrophages: induced

## ▴c5: deletion mutant KRS with truncated C-terminus, 1-592 a.a of SEQ ID NO: 2
HCT116 cells [3]
  exosome secretion of KRS variant compared with WT: reduced
KRS and syntenin-1 [4]
  binding of KRS variant with syntenin-1 compared with WT: significantly deteriorated
HCT116 cells [1]
  secretion of KRS variant compared with WT: less
